According to patent US9944597B2, “Polysubstituted pyrroles having microtubule-disrupting, cytotoxic and antitumor activities and methods of use thereof” (THE BOARD OF REGENTS OF THE UNIVERSITY OF TEXAS SYSTEM, priority 2013, dated 2018):
Read-outs that look alike come from different tables or passages of the source.

Key:
[1] = molecular target: T1, purified porcine brain tubulin (Sus scrofa, UniProt P02554); experiment: Inhibition of polymerization of purified tubulin (absorbance at 340 nm); assay type: biochemical
T1 construct: of Purified Porcine Brain Tubulin; from tissue; host or cells: porcine brain

HeLa WT-β-III cells = experiment: Antiproliferative SRB assay, βIII-tubulin expressing HeLa; assay type: cell-based, human; settings: for IC50: Table 49, βIII tubulin expressing line, 48 hr, SRB assay; for Rr (β-III): relative resistance: IC50 of expressing line divided by IC50 of parental HeLa
Procedure: (§1) Cell Culture. Various representative cancer and other cell lines were sourced and grown as described previously [Mooberry, S. L., et al., Mol. Pharm. 72, 132-140 (2007)]. MDA-MB-435 (human melanoma cancer cells), and MDA-MB-231 (human breast cancer cells) were grown in IMEM Richter's Medium (Life Technologies, Grand Island, N.Y.) with 10% FBS (Hyclone, Logan, Utah) and 25 μg/mL gentamicin sulfate (Life Technologies). A-10 (embryonic rat vascular smooth muscle cells) and HeLa (human cervical cancer cells), SK-OV-3 (human ovarian cancer cells) and SK-OV-3-MDR-1-M6/6 (a clone of the SK-OV-3 that was generated from SK-OV-3 cells by adenovirus-mediated expression of MDR1) were grown in Basal Medium Eagle (BME, Sigma-Aldrich, St. Louis, Mo.) containing Earle's salts, 50 μg/ml gentamicin sulfate, and 10% FBS. HeLa cells (a single-cell clone derived from transduction of HeLa cells with wild-type (WT) βIII-tubulin) were grown in Dulbecco's Modified Eagle's Medium (DMEM, Life Technologies) containing 50 μg/mL gentamicin sulfate and 10% FBS.
(§2) Antiproliferative Effects. The pyrrole compounds were evaluated for their antiproliferative effects in a panel of cancer cell lines. Cells were plated into 96-well plates at predetermined densities and allowed to attach and proliferate for 24 hr, and then the compounds were added. After a 48 hr exposure to the compounds, the cells were fixed with trichloroacetic acid and cellular protein was determined using the sulforhodamine B (SRB) assay (Skehan et al., J. Natl. Cancer Inst. 82, 1107-12, (1990); Boyd and Paull Drug Devel. Res. 34, 91-109, (1995)). Concentration response curves were constructed, and the IC50 (the concentration required to inhibit proliferation by 50%) values were determined from the linear portions of the log concentration-response curves as described previously [Tinley, T. L., et al., Cancer Res. 63, 3211-3220, (2003)] as shown in Table 48.
(§3) First, drug resistance mediated by the expression of βIII tubulin was evaluated in an isogenic HeLa cell line pair. Expression of the βIII tubulin isotype is associated with clinical drug resistance to the taxanes in ovarian cancer, non small-cell lung cancer and breast cancer [Galmarini, C. M., et al., Clin. Cancer Res. 14, 4511-4516 (2008)]. Secondly, drug resistance mediated by the expression of the drug efflux pump protein, Pgp, was evaluated in the isogenic SK-OV-3 cell line pair. The expression of Pgp can lead to lower intracellular drug concentrations and diminished cytotoxic effects both in vitro and in vivo. All tubulin-binding anticancer drugs used currently in the clinic, except cabazitaxel, are substrates for Pgp, thus limiting their utility in drug resistant tumors [Penson, R. T., et al., Gynecol. Oncol. 93, 98-106 (2004)]. Differences in sensitivity between the parent and transformed cell line, indicative of resistance, was determined by calculating relative resistance (Rr) values in the two pairs of isogenic cell lines (dividing the IC50 of the expressing cell line by the IC50 of the parental cell line).

SK-OV-3-MDR-1-6/6 cells = experiment: Antiproliferative SRB assay, Pgp expressing SK-OV-3; assay type: cell-based, human; settings: for IC50: Table 49, Pgp expressing line, 48 hr, SRB assay; for Rr (Pgp): relative resistance: IC50 of expressing line divided by IC50 of parental SK-OV-3
Procedure: as §1, §2
as §3, with “The expression of Pgp can lead to lower intracellular drug concentrations and diminished cytotoxic effects both in vitro and in vivo.” left out

[2] = system: SK-OV-3 (human ovarian cancer cells); experiment: Antiproliferative SRB assay, SK-OV-3; assay type: cell-based
Procedure: as §1, §2
as §3, with “The expression of Pgp can lead to lower intracellular drug concentrations and diminished cytotoxic effects both in vitro and in vivo.” left out

A-10 cells = experiment: Cellular microtubule loss by indirect immunofluorescence; assay type: cell-based, rat; settings: read-out: EC50 Values (nM) for Microtubule Loss in A-10 cells
Procedure: The effects of representative compounds on cellular microtubules were evaluated in A-10 (embryonic rat vascular smooth muscle cell line) cells using indirect immunofluorescence techniques as previously described (Tinley et al., Cancer Res. 63, 3211-20 (2003)). Cells were visualized using a Nikon Eclipse 80i fluorescence microscope and NIS Elements software. Changes in both interphase and mitotic microtubules were noted and photographed. The EC50 values, the concentration that causes approximately 50% loss of interphase microtubules was determined by evaluating a range of concentrations of each compound and the percent cellular microtubule depolymerization that was observed visually at each concentration was noted.
Microtubules were visualized by indirect immunofluorescence using a β-tubulin antibody, and the DNA was visualized with DAPI. A representative concentration response curve for NT-7-16 is also shown in FIG. 1 that was used to calculate its corresponding EC50 for microtubule loss. Concentration response curves for microtubule loss were plotted using data from at least three experiments for each compound and the corresponding EC50 values for microtubule loss are presented in Table 50.

[3] = system: MDA-MB-435 (human melanoma cancer cells); experiment: Antiproliferative SRB assay, MDA-MB-435; assay type: cell-based; settings: read-out: MDA-MB-435 Anti-Proliferative Activity, IC50
Procedure: as §1, §2

[4] = system: HeLa (human cervical cancer cells); experiment: Antiproliferative SRB assay, HeLa; assay type: cell-based
Procedure: as §1, §2, §3

[5] = Homo sapiens, SK-OV-3, Table 48, 48 hr exposure, read-out: SK-OV-3 Anti-Proliferative Activity, IC50
[6] = Homo sapiens, SK-OV-3, Table 49, parental line, 48 hr, read-out: SK-OV-3 IC50
[7] = Rattus norvegicus, A10, Table 50, concentration causing approximately 50% loss of interphase microtubules
[8] = Homo sapiens, MDA-MB-435, Table 48, 48 hr exposure, SRB assay
[9] = Homo sapiens, HeLa, Table 48, 48 hr exposure, read-out: HeLa Anti-Proliferative Activity, IC50
[10] = Homo sapiens, HeLa, Table 49, parental line, 48 hr, read-out: HeLa IC50
[11] = Homo sapiens, MDA-MB-435, Table 52

T1 sequence (P02554 whole entry): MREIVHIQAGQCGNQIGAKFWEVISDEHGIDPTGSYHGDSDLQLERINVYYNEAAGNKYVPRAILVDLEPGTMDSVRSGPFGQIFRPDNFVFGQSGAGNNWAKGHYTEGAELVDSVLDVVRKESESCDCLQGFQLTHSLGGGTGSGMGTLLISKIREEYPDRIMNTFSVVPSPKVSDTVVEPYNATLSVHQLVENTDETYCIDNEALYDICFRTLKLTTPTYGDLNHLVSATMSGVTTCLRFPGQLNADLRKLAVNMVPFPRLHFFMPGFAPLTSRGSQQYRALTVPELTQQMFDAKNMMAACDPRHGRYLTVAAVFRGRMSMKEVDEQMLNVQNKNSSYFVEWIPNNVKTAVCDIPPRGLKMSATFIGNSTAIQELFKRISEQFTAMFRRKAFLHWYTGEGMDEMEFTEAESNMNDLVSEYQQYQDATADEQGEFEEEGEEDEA
T1 sequence (P02550 whole entry partner): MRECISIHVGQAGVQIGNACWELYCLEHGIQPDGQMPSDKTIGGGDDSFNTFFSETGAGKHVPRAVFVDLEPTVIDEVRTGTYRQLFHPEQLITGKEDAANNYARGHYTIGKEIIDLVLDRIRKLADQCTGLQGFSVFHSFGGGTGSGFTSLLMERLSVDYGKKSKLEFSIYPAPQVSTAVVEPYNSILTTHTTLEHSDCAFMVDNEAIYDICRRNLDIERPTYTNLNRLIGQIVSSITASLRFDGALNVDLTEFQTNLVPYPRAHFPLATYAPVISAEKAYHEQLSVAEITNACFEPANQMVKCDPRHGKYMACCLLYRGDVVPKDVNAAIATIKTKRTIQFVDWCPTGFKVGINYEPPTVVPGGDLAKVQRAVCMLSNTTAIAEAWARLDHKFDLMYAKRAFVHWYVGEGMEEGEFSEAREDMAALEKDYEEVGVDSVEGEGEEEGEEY

Structure (SMILES) | IC50 (HeLa WT-β-III cells; Homo sapiens, HeLa) [nM] | Rr (β-III) (HeLa WT-β-III cells) | IC50 (SK-OV-3-MDR-1-6/6 cells; Homo sapiens, SK-OV-3) [nM] | Rr (Pgp) (SK-OV-3-MDR-1-6/6 cells) | IC50 [2, 5] [nM] | IC50 [2, 6] [nM] | EC50 (A-10 cells; [7]) [nM] | IC50 [3, 8] [nM] | IC50 [4, 9] [nM] | IC50 [4, 10] [nM] | inhibition at 2 µM ([1]; compound at 2 μM) [%] | IC50 [3, 11] [nM] | melting point [°C] | further results
CCOC(=O)c1[nH]c(Br)c(-c2ccc(OC)c(OC)c2OC)c1Br [Example 22, 3,5-Dibromo-4-(2,3,4-trimethoxyphenyl)-1H-pyrrole-2-carboxylic acid ethyl ester] | 15.7 ± 0.2 | 1.2 | 10.6 ± 0.3 | 0.7 | 15.2 ± 0.8 | 15.2 ± 0.8 | 34.5 | 10.4 ± 0.5 | 12.9 ± 0.8 | 12.9 ± 0.8 | – | – | – | inhibition at 1 µM ([1]; compound at 1 μM): 53%
CCOC(=O)c1[nH]c(C=NO)c(-c2ccc(OC)c(OC)c2OC)c1Br (mixture of isomers) [Example 10a, Cis/Trans-3-Bromo-4-(2,3,4-trimethoxyphenyl)-5-oximino-1H-pyrrole 2-carboxylic acid ethyl ester] | – | 0.9 | – | 1.2 | – | – | – | – | – | – | – | – | – | % Inhibition of Tubulin Polymerization ([1]; compound at 2 μM): 75%; IC50 (HeLa WT-β-III cells): 4.1 ± 1 nM; IC50 (SK-OV-3-MDR-1-6/6 cells): 6.6 ± 1.2 nM; IC50 ([2]; Table 48, 48 hr exposure, read-out: SK-OV-3 Anti-Proliferative Activity, IC50): 5.3 ± 0.2 nM; IC50 ([2]; Table 49, parental line, 48 hr, read-out: SK-OV-3 IC50): 5.3 ± 0.2 nM; EC50 (A-10 cells; Table 50, concentration causing approximately 50% loss of interphase microtubules): 9.8 nM; EC50 (A-10 cells; Table 52): 8.9 nM; IC50 ([3]; Table 48, 48 hr exposure, SRB assay): 2.7 ± 0.2 nM; IC50 ([3]; Table 52): 2.7 ± 0.2 nM; IC50 ([4]; Table 48, 48 hr exposure, read-out: HeLa Anti-Proliferative Activity, IC50): 5 ± 0.3 nM; IC50 ([4]; Table 49, parental line, 48 hr, read-out: HeLa IC50): 5 ± 0.3 nM
CCOC(=O)c1[nH]c(C(F)F)c(-c2ccc(OC)c(OC)c2OC)c1Br [Example 6, 3-Bromo-4-(2,3,4-trimethoxyphenyl)-5-(difluoromethinyl)-1H-pyrrole 2-carboxylic acid ethyl ester] | 184 ± 30.3 | 1.3 | 174 ± 12.5 | 0.8 | 227 ± 14 | 227 ± 14 | 315 | 113 ± 6 | 142 ± 11 | 142 ± 11 | 55 | 113 ± 6 | 149 to 151 | –
CCOC(=O)c1[nH]c(C=O)c(-c2ccc(OC)c(OC)c2OC)c1Br [Example 2, 3-Bromo-4-(2,3,4-trimethoxyphenyl)-5-formyl-1H-pyrrole 2-carboxylic acid ethyl ester] | 104 ± 6.5 | 3.3 | 82.2 ± 9.4 | 1.1 | 72 ± 9.1 | 72 ± 9.1 | 66 | 57 ± 5 | 31.7 ± 4.8 | 31.7 ± 4.8 | 68 | 57 ± 5 | 158 to 160 | –
CCOC(=O)c1[nH]c(C#N)c(-c2ccc(OC)c(OC)c2OC)c1Br [Example 11, 3-Bromo-4-(2,3,4-trimethoxyphenyl)-5-cyano-1H-pyrrole 2-carboxylic acid ethyl ester] | 26.1 ± 0.8 | 1.3 | 42.2 ± 5.5 | 1.6 | 26.2 ± 2.1 | 26.2 ± 2.1 | 88.1 | 19.6 ± 1.8 | 20.6 ± 1.9 | 20.6 ± 1.9 | 78 | 19.6 ± 1.8 | 173 to 176 | –
CCCNC=C1NC(C(=O)OCC)C(Br)=C1c1ccc(OC)c(OC)c1OC (stereo not drawn) [Example 17, 3-Bromo-5-(N-Propylaminomethylene)-4-(2,3,4-trimethoxyphenyl)-1H-pyrrole 2-carboxylic acid ethyl ester] | 2010 | 0.8 | 3570 | 1.2 | 3020 | 3020 | 4900 | 2630 | 2450 | 2450 | – | 2630 | 143 to 145 | –
